The values below come from US20160060222A1, “AMINO-QUINOLINES AS KINASE INHIBITORS” (GlaxoSmithKline Intellectual Property Development Limited, priority 2011, published 2016).

Structures can show the parent of a compound that is named as a salt.

In the assay the target is T1, RIPK2 (Homo sapiens, UniProt O43353).
T1 construct: Full length FLAG His tagged RIPK2 was purified from a Baculovirus expression system; FLAG (N); 6His (N); made in house; host or cells: Spodoptera frugiperda (Sf9) insect cells, baculovirus
T1 sequence (O43353 whole entry): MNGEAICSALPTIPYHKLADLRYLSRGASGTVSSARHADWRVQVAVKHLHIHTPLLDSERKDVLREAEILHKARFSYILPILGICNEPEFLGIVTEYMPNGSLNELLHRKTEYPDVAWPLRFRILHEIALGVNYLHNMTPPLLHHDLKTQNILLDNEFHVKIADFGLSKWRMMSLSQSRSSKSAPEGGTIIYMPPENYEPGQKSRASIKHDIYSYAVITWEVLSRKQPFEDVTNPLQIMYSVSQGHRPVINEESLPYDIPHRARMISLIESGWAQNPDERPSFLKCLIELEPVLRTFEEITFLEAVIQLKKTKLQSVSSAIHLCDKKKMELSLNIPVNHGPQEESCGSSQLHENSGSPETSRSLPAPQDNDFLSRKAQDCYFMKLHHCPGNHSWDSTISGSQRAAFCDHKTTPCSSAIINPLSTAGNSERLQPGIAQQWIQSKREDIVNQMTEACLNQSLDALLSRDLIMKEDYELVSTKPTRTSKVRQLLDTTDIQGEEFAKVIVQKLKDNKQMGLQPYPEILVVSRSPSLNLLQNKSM
Description: Fluorescent polarization based binding assay at the ATP binding pocket of RIPK2. The settings on record: full length FLAG His tagged RIPK2; competition with fluorescently labeled ATP competitive ligand (5 nM); mean of a minimum of 2 experiments; read-out: mean pIC50 (RIP2 kinase, fluorescent polarization binding assay) (converted). The source says: A fluorescent polarization based binding assay was developed to quantitate interaction of novel test compounds at the ATP binding pocket of RIPK2, by competition with a fluorescently labeled ATP competitive ligand. Full length FLAG His tagged RIPK2 was purified from a Baculovirus expression system and was used at a final assay concentration of twice the KDapparent. A fluorescent labeled ligand (5-({[2-({[3-({4-[(5-hydroxy-2-methylphenyl)amino]-2-pyrimidinyl}amino)phenyl]carbonyl}amino)ethyl]amino}carbonyl)-2-(6-hydroxy-3-oxo-3H-xanthen-9-yl)benzoic acid, prepared as described below) was used at a final assay concentration of 5 nM. Both the enzyme and ligand were prepared in solutions in 50 mM HEPES pH7.5, 150 mM NaCl, 10 mM MgCl2, 1 mM DTT, and 1 mM CHAPS. Test compounds were prepared in 100% DMSO and 100 nL was dispensed to individual wells of a multiwell plate. Next, 5 ul RIPK2 was added to the test compounds at twice the final assay concentration, and incubated at room temperature for 10 minutes. Following the incubation, 5 ul of the fluorescent labeled ligand solution, was added to each reaction, at twice the final assay concentration, and incubated at room temperature for at least 10 minutes. Finally, samples were read on an instrument capable of measuring fluorescent polarization. Test compound inhibition was expressed as percent (%) inhibition of internal assay controls.
For concentration response experiments, normalized data were fit and pIC50s determined using conventional techniques. For example, the following four parameter logistic equation may be used: y=A+(([…]))/(1+(10^x)/(10^C)^D), where: y is the % activity (% inhibition) at a specified compound concentration; A is the minimum % activity; B is the maximum % activity; C=log10(IC50); D=Hill slope; x=log10 (compound concentration [M]); and pIC50=(−C).
The pIC50s are averaged to determine a mean value, for a minimum of 2 experiments.
Full-length human RIPK2 (receptor-interacting serine-threonine kinase 2) cDNA was purchased from Invitrogen (Carlsbad, Calif., USA, Clone ID:10H6368, RIPK2-pENTR 221). […]
In the case of `CS(=O)(=O)c1ccc2nccc(Nc3ccc(O)c(F)c3)c2c1` [Example 12, 2-fluoro-4-{[6-(methylsulfonyl)-4-quinolinyl]amino}phenol], the IC50 was 398 nM. Under `CS(=O)(=O)c1ccc2nccc(Nc3n[nH]c4cc(Cl)ccc34)c2c1` [Example 75, N-(6-chloro-1H-indazol-3-yl)-6-(methylsulfonyl)-4-quinolinamine] stands 126 nM. Under `Nc1ccc(S(=O)(=O)c2ccc3nccc(Nc4ccc5scnc5c4)c3c2)cc1` [Example 106, 6-[(4-aminophenyl)sulfonyl]-N-1,3-benzothiazol-5-yl-4-quinolinamine tetrahydrochloride] stands 126 nM.
